Laboratory results taken from publication PMC9785777, “Antidiabetic Potential of Novel 1,3,5-Trisubstituted-2-Thioxoimidazloidin-4-One Analogues: Insights into α-Glucosidase, α-Amylase, and Antioxidant Activities” (Pharmaceuticals, 2022).
Several values for one entry are separate records, joined by “and”; a condition that tells them apart may be missing. Identical values can stand only once.

How the values were obtained:
[1] = tested on: human lung fibroblast WI-38 cell line; experiment: MTT cytotoxicity assay against WI-38 cells; assay type: cell-based; conditions: MTT, 48 h
Protocol: Based on the promising dual inhibitory activity of this class of compounds, we next evaluated the cytotoxicity of compounds 5a and 7a against human lung fibroblast cell line WI-38 in order to gain insights into the toxicity of this class of compounds utilizing the MTT assay. In this regard, lung fibroblast cells were cultured and treated with compounds 5a and 7a for 48 h at different concentrations (1000, 250, 63, 16, and 4 µg/mL). After the cells were washed, they were treated with MTT solution and the absorption was assessed using an ELISA reader at 570 nm. As a pharmacological reference drug, Celecoxib, a well-known anti-inflammatory agent, was utilized.
The cytotoxicity of compounds 5a and 7a was assessed toward the human lung fibroblast WI-38 cell line (Sigma-Aldrich, St. Louis, MO, USA, product number 90020107) using MTT assay. The MTT test assay was performed in accordance with the previously stated procedure. MTT (3-(4,5-dimethylthiazol-2-yl)-2,5-diphenyl tetrazolium bromide; Sigma catalog no. M2128) was dissolved in PBS at 5 mg/mL and processed to eliminate the insoluble residues. Briefly, cells (10^5 cells/well) were treated for 48 h at 37 °C with compounds 5a and 7a at varied doses (1000, 250, 63, 16, and 4 µg/mL, DMSO stock solutions) in a 5% CO2 atmosphere. In our assessment, celecoxib, an inhibitor of cyclooxygenase 2, was employed as a standard reference drug. Following cell washing, MTT solution (180 µL/well) was applied to the cells and incubated at 37 °C for 4 h with shaking, and the absorbance was measured using an ELISA reader at 570 nm.

[2] = ROS-generation assay (H2O2 generated with DTT, HRP-phenol red, 610 nm); conditions: 50 µM compound, incubated with DTT; control 90.74±5.54
Description: The […] metabolites and enzymes (such as NADPH oxidase, lipoxygenase, and cytochrome P450) act together to mediate the production of ROS and diminish the counteractive oxidative damage. ROS can cause damage to DNA, lipid, proteins, and nucleic acids and the destruction of cell components leading to cell death. Toward this end, we aimed to investigate whether the mode of action of this class of compounds involved the generation of ROS. ROS-producing compounds upon reaction with a reducing agent in the presence of oxygen afford superoxide O^•−2 radical and hydrogen peroxide (H2O2) which could be quantitively estimated. Thus, compounds 5a and 7a (at 50 µM concentration) were incubated with the reducing agent dithiothreitol (DTT) and the generated H2O2 was subsequently assessed by monitoring the oxidation of phenol red in the presence of horseradish peroxidase (HRP) at the absorbance of 610 nm. We first examined the validity of the assay by examining the activity of a known ROS-producing standard drug. In our study, Celecoxib was utilized as a reference pharmacological ROS-generating drug. […] Next, we evaluated the potency of compounds 5a and 7a to produce ROS at a 50 µM concentration.
According to Nasiri et al., the antioxidant activity of compounds (5a, 7a) and Celecoxib was measured by an evaluation of ROS-generation using ELISA analysis. Three different solutions were prepared for the in vitro assessment of ROS-generation: phenol red, sodium hydroxide solution, and DTT. All reagents were provided by Sigma-Aldrich. A stock solution of DTT (20 mM) was prepared by dissolving […] of DTT in 500 µL of Hank’s Balanced Salt Solution (HBSS), and the obtained solution was preserved at −20 °C. The stock solution was further diluted with HBSS to 0.8 mM for each measurement. The HRP-PR solution was prepared by dissolving 1.8 mg of horseradish peroxidase (HRP) and 3 mg of phenol red (PR) in 10 mL of HBSS. […] After incubation, 1N NaOH was applied, and the absorbance at 610 nm was measured using a plate reader spectrometer. […]

Compound: COC(=O)CCN1C(=S)N(N=C(C)c2ccccc2O)C(=O)C1=Cc1ccccc1O [Compound 5a, Methyl [5-(2-hydroxybenzylidene)-4-oxo-3-(2-hydroxyphenylethylidene)amino-2-thioxoimidazolidin-1-yl] propionate]
- WI-38 cytotoxicity IC50 [1]: 88.538 µg/mL
- ROS produced (generated H2O2) [2]: 132.4 pg/mL and 132.4 ± 2.16 pg/mL

Compound: COC(=O)CCN1C(=S)N(N=C(C)c2ccccc2O)C(=O)C1=Cc1ccccc1OC(C)=O [Compound 7a, Methyl [5-(2-acetoxybenzylidene)-4-oxo-3-(2-hydroxyphenylethylidene)amino-2-thioxoimidazolidin-1-yl] propionate]
- ROS produced (generated H2O2) [2]: 191.5 pg/mL and 191.5 ± 3.62 pg/mL
